Measured values published in patent US20240409482A1, “Novel Compound and Organic Light Emitting Device Comprising the Same” (LG Chem, Ltd., priority 2022, published 2024).

Assay: Solubility measurement in cyclohexanone
Type: physicochemical
Set-up: key to Solubility (1.3 wt %): “O” means that the compound was easily dissolved in cyclohexanone; “A” means that the compound was dissolved in cyclohexanone at 80° C.; “X” means that the compound is not soluble in cyclohexanone
Settings: cyclohexanone, concentration of 1.3 wt %, room temperature
Experimental: It was confirmed whether each of Compounds 1 to 14, Compound A and Compound B prepared in Preparation Examples could be dissolved in cyclohexanone at a concentration of 1.3 wt % at 25° C., and the results are shown in Table 1 below. At this time, “O” means that the compound was easily dissolved in cyclohexanone, “A” means that the compound was dissolved in cyclohexanone at 80° C., and “X” means that the compound is not soluble in cyclohexanone.

SMILES | Solubility in cyclohexanone, result in words
c1ccc2c(-c3ccc(-c4c5ccccc5c(-c5ccc(-c6cccc7c(-c8cccc9ccc(-c%10ccc(-c%11c%12ccccc%12c(-c%12cccc%13ccccc%12%13)c%12ccccc%11%12)cc%10)cc89)cccc67)cc5)c5ccccc45)cc3)cccc2c1 [Compound B, reference compound] | could not be dissolved at room temperature
c1ccc(-c2c3ccccc3c(-c3ccc(-c4ccc5cc(-c6ccc7cc(-c8c9ccccc9c(-c9ccccc9)c9ccccc89)ccc7c6)ccc5c4)cc3)c3ccccc23)cc1 [Compound A] | could not be dissolved at room temperature

Same assay, conditions: in cyclohexanone at a concentration of 1.3 wt % at 25° C.

SMILES | Solubility (1.3 wt %)
c1cc(-c2cccc3ccc(-c4ccc5cccc(-c6c7ccccc7c(-c7ccc8oc9ccccc9c8c7)c7ccccc67)c5c4)cc23)cc(-c2c3ccccc3c(-c3ccc4ccccc4c3)c3ccccc23)c1 [Compound 7] | ◯
c1ccc2cc(-c3c4ccccc4c(-c4ccc(-c5cccc6cc(-c7ccc8c(-c9c%10ccccc%10c(-c%10ccc%11ccccc%11c%10)c%10ccccc9%10)cccc8c7)ccc56)cc4)c4ccccc34)ccc2c1 [Compound 11] | ◯
c1ccc2c(-c3ccc(-c4c5ccccc5c(-c5ccc(-c6cccc7c(-c8cccc9ccc(-c%10ccc(-c%11c%12ccccc%12c(-c%12cccc%13ccccc%12%13)c%12ccccc%11%12)cc%10)cc89)cccc67)cc5)c5ccccc45)cc3)cccc2c1 [Compound B, reference compound] | Δ
c1cc(-c2ccc(-c3c4ccccc4c(-c4cccc5ccccc45)c4ccccc34)cc2)c2ccc(-c3ccc4c(-c5c6ccccc6c(-c6ccc7oc8ccccc8c7c6)c6ccccc56)cccc4c3)cc2c1 [Compound 12] | ◯
c1ccc2cc(-c3c4ccccc4c(-c4ccc(-c5cccc6ccc(-c7ccc8cccc(-c9c%10ccccc%10c(-c%10ccc%11ccccc%11c%10)c%10ccccc9%10)c8c7)cc56)cc4)c4ccccc34)ccc2c1 [Compound 1] | ◯
c1ccc(-c2c3ccccc3c(-c3ccc(-c4ccc5cc(-c6ccc7cc(-c8c9ccccc9c(-c9ccccc9)c9ccccc89)ccc7c6)ccc5c4)cc3)c3ccccc23)cc1 [Compound A] | X
c1cc(-c2ccc(-c3c4ccccc4c(-c4cccc5ccccc45)c4ccccc34)cc2)c2cc(-c3ccc4cccc(-c5c6ccccc6c(-c6ccc7oc8ccccc8c7c6)c6ccccc56)c4c3)ccc2c1 [Compound 8] | ◯
c1cc(-c2ccc(-c3c4ccccc4c(-c4cccc5ccccc45)c4ccccc34)cc2)c2cc(-c3ccc4cccc(-c5c6ccccc6c(-c6cccc7oc8ccccc8c67)c6ccccc56)c4c3)ccc2c1 [Compound 6] | ◯
c1cc(-c2cccc3ccc(-c4ccc5cccc(-c6c7ccccc7c(-c7ccc8ccccc8c7)c7ccccc67)c5c4)cc23)cc(-c2c3ccccc3c(-c3ccc4ccccc4c3)c3ccccc23)c1 [Compound 5] | ◯
c1ccc2cc(-c3c4ccccc4c(-c4cccc5ccc(-c6ccc7cccc(-c8c9ccccc9c(-c9ccc(-c%10cccc%11ccccc%10%11)cc9)c9ccccc89)c7c6)cc45)c4ccccc34)ccc2c1 [Compound 3] | ◯
c1ccc2cc(-c3c4ccccc4c(-c4ccc5ccc(-c6ccc7ccc(-c8c9ccccc9c(-c9ccc(-c%10cccc%11ccccc%10%11)cc9)c9ccccc89)cc7c6)cc5c4)c4ccccc34)ccc2c1 [Compound 10] | ◯
c1cc(-c2cccc3ccc(-c4ccc5cccc(-c6c7ccccc7c(-c7ccc8ccccc8c7)c7ccccc67)c5c4)cc23)cc(-c2c3ccccc3c(-c3cccc4ccccc34)c3ccccc23)c1 [Compound 4] | ◯
c1ccc2cc(-c3ccc(-c4c5ccccc5c(-c5cccc6ccc(-c7ccc8cccc(-c9c%10ccccc%10c(-c%10ccc%11ccccc%11c%10)c%10ccccc9%10)c8c7)cc56)c5ccccc45)cc3)ccc2c1 [Compound 2] | ◯
c1ccc2c(-c3c4ccccc4c(-c4ccc(-c5ccc6ccc(-c7ccc8ccc(-c9c%10ccccc%10c(-c%10ccc%11oc%12ccccc%12c%11c%10)c%10ccccc9%10)cc8c7)cc6c5)cc4)c4ccccc34)cccc2c1 [Compound 9] | ◯
